According to patent US8895502B2, “β2-glycoprotein I peptide inhibitors” (Kansas State University Research Foundation, priority 2010, dated 2014):
Ends that are not written are not given here.

How the values were obtained:
[1] = tested on: Fvb/N-Tg(MMTV-PyVT)634Mul/J mice mammary tumors; test: Spontaneous breast cancer model, tumor growth; assay type: in vivo, mouse; conditions: 40 μM retro-orbital 3 times per week for 7 weeks after palpable tumor
Procedure: Ten […] Fvb/N-Tg(MMTV-PyVT)634Mul/J mice were generously donated by T. A. Nguyen and maintained under 12 h light/dark cycles at Kansas State University, Division of Biology (Manhattan, Kans.). These mice are Her2^+ Estrogen receptor α/β^+, Progesterone receptor^+, p53^+ animal models that spontaneously develop breast cancer. All mice were allowed access to food and water ad libitum and maintained under specific pathogen free conditions. Research was conducted in compliance with the Animal Welfare Act and other federal statutes and regulations relating to animals and experiments involving animals and was approved by the Institutional Animal Care and Use Committee.
Mice were observed 3 times a week until tumors were palpable. Randomly, mice were assigned to receive treatment with N. Saline or peptide 296c-s. Each peptide treated mouse received β2-Glycoprotein 1 Peptide 296c-s (40 μM) by retro-orbital injection three times a week for 7 additional weeks. N. Saline treated mice received the same volume (80 μL) of 0.15M normal saline retro-orbitally three times a week as a control group.
Tumors were measured by hand with calipers three times a week for 7 weeks after the start of injection. After 7 weeks, the mice were briefly anesthetized using isofluorene followed by cervical dislocation euthanization and the tumors were harvested. The tumors were measured volumetrically. […]

[2] = tested on: peroxidase; test: Intestinal IR, total tissue peroxidase; assay type: in vivo, mouse; conditions: for total peroxidase production by the intestinal tissues: administered up to 60 min post-reperfusion
Procedure: Ischemia/reperfusion was performed on ketamine/xylazine anesthetized mice as described in Example 1 above. After 2 hours of reperfusion, the mice were euthanized and sera, liver, spleen, and 2 cm sections of the small intestine, approximately 10 cm distal to the gastroduodenal junction, were collected for histological and other analyses. Mice treated with the various β2-GPI peptides underwent the same procedure with i.v. administration of the peptides. Most studies assumed 2 mL total blood volume in a mouse and administered peptides to a final concentration of 40 μM at 5 min prior to ischemia. Dose response studies administered 1-40 μM peptide at 5 min prior to ischemia and time course studies administered 40 μM peptide at 5 min prior to ischemia, and at 15-, 30- or 60-min post-ischemia (i.e., during reperfusion).
Total peroxidase, LTB4, PGE2, IL-6, IL-12p40, and IL-12p70 concentrations were determined using the procedures described in Example 1.

[3] = tested on: CD31; test: B16-F10 melanoma model, CD31 expression in tumors; assay type: in vivo, mouse
Procedure: (§1) mRNA was isolated from the tumor samples that were homogenized in Trizol. The concentration of mRNA was evaluated by nanodrop and the purity by bioanalyzer. cDNA was then synthesized using random primers with the Quanta cDNA synthesis kit. Real-time PCR was then performed on a 1:100 dilution of cDNA for 18s rRNA. After 3 min denaturing at 95° C., the real-time PCR reaction consisted of 50 cycles (of 10 sec at 95° C., 20 sec at 58° C., and 10 sec at 72° C.), followed by a melt curve increasing at intervals of 0.5° from 60° C. to 95° C. RT-PCR was also performed on cDNA samples for CD31 and endoglin which are endothelial markers of angiogenesis. Fold change of each gene was determined by subtracting 18s for normalization of RNA and fold change was determined by comparing to original cells which were set to 1. Primers were obtained from Integrated DNA Technology (Coraville, Iowa) and sequences are in the table below.
OCT cryopreserved tumor sections were cut and stained similar to intestinal sections in Example 1. CD31 and Pan-endothelial expression was detected by FITC conjugated rat anti-mouse CD31 or pan-endothelial antibodies (Biolegend, San Diego, Calif.). Each experiment contained serial sections stained with the appropriate isotype control antibodies. All slides were mounted with ProLong Gold (Invitrogen) and images were obtained and analyzed as described in Example 1.

[4] = tested on: endoglin; test: B16-F10 melanoma model, endoglin expression in tumors; assay type: in vivo, mouse; conditions: peptide treatment on days 1-4, 6, and 8, qRT-PCR
Procedure: as §1

[5] = tested on: LTB4; test: Intestinal IR, ex vivo LTB4 generation; assay type: in vivo, mouse; conditions: 40 μM peptide at 5 min prior to ischemia and 15-, 30- or 60-min post-ischemia
[6] = tested on: CD31; test: Spontaneous breast cancer model, CD31 RNA expression; assay type: in vivo, mouse; conditions: mammary tumors, compared to saline treated animals
Procedure: as §1, with “RT-PCR” for “Real-time PCR”, “0.5° C.” for “0.5°”, “VEGF” for “endoglin”, “After” for “Fold change of each gene was determined by”, “Ct values, peptide treated dCt values were normalized to saline treated samples” for “for normalization of RNA”, “calculated as ddCt.” for “was determined by comparing to original cells which were set to 1.”

[7] = tested on: thioglycollate-elicited macrophages, IL-6; test: β2-GPI stimulated macrophage IL-6 production; assay type: cell-based; conditions: mouse β2-GPI 10 μg/mL, peptide 40 μM, 18 hours
Procedure: C57Bl/6 mice were injected i.p. with 1 mL thioglycollate (4%) 4 days prior to peritoneal lavage. Peritoneal exudate macrophages or the B cell line, LK35.2, were seeded at 2×10^6 cells/mL in 24-well or 96-well plates. After macrophage adherence, both cell types were treated with mouse β2-GPI (10 μg/mL) with or without peptide (40 μM). Additional cells were unstimulated as a negative control or stimulated with 10 μg/mL LPS (E. coli 055B5) as a positive control. Supernatants were collected 18-20 hours after stimulation and analyzed for nitrite by Griess reagent (Hoffman & Fleming, Cell Biochem. Funct. 28:686-694 (2010)) or IL-6 by Milliplex MAP kit (Millipore) following the manufacturer's instructions using a Luminex 200 with xPONENT 3.1 and Analyst software (Millipore).

[8] = dose response, similar concentrations of each peptide
[9] = peptide administered prior to IR

| Substance | percent tumor growth compared to initial measurements [1] | total peroxidase production by the intestinal tissues [2] | intestinal peroxidase production [2, 8] | intestinal peroxidase production [2, 9] | protein expression of both endothelial markers ([3]; immunohistochemistry of tumors) | CD31 RNA expression within the tumors ([3]; peptide treatment on days 1-4, 6, and 8, qRT-PCR) | endoglin RNA expression within the tumors [4] | IR-induced LTB4, time course of administration [5] | RNA expression of CD31 [6] | β2-GPI induced IL-6 production [7] |
| --- | --- | --- | --- | --- | --- | --- | --- | --- | --- | --- |
| H-IHFYSKNKEKKSSYTVEAHSRDGTI-OH [peptide 296Cys-Ser] | significantly decreased | significantly decreased | attenuated | significantly attenuated | decreased | attenuated | attenuated | significantly inhibited | significantly decreased | – |
| H-KKCSYTVEAHCRDGTIEIPSCFKEHS-OH (cysteine pairing not given here) [peptide 305, 10] | – | significantly decreased | attenuated | significantly attenuated | – | – | – | – | – | attenuated |
